In US10829487B2, “Benzylamino substituted pyridopyrimidinones and derivatives as SOS1 inhibitors” (Boehringer Ingelheim International GmbH, priority 2017, dated 2020):

Tests used:
[1] = biological target: protein-protein interaction between SOS1 and KRAS G12D (Homo sapiens (Human), UniProt Q07889); test: KRAS::SOS1 AlphaScreen Binding Assay
From the text: KRAS::SOS1 AlphaScreen Binding Assay
Low IC50 values are indicative of high potency of the SOS1 inhibitor compound in this assay setting:
Reagents: • GST-tagged SOS1 (564_1049_GST_TEV_ECO) produced in-house • GST-TEV-SOS1 (564-1049) is purchased from Viva Biotech Ltd. • 6×His-Tev-K-RasG12D(1-169)Avi is purchased from Xtal BioStructures, Inc. (Lot # X129-110) • GDP (Sigma Cat No G7127) • AlphaLISA Glutathione Acceptor Beads (PerkinElmer, Cat No AL109) • AlphaScreen Streptavidin Donor Beads (PerkinElmer Cat No 6760002) • Assay plates: Proxiplate-384 PLUS, white (PerkinElmer, Cat No 6008289)
10 nM (final assay concentration) KRAS G12D, 10 μM (final assay concentration) GDP and 5 nM (final assay concentration) GST-SOS1 are mixed in assay buffer prior to use and kept at room temperature.
AlphaLISA Glutathione Acceptor Beads and AlphaScreen Streptavidin Donor Beads are mixed in assay buffer at a concentration of 10 μg/mL (final assay concentration) each prior to use and kept at room temperature.
Compounds are diluted to a final start concentration of 100 μM and are tested in duplicate. Assay-ready plates (ARPs) are generated using an Access Labcyte Workstation with a Labcyte Echo 550 or 555 accoustic dispenser. For compound a start concentration of 100 μM, 150 nL of compound solution is transferred per well in 11 concentrations in duplicate with serial 1:5 dilutions.
The assay is run using a fully automated robotic system in a darkened room below 100 Lux. 10 μL of KRAS::SOS1 GDP mix is added into columns 1-24 to the 150 nL of compound solution (final dilution in the assay 1:100, final DMSO concentration 1%).
After a 30 minute incubation time 5 μL of bead mix is added into columns 1-23. Plates are kept at room temperature in a darkened incubator. After a further 60 minute incubation, the signal is measured using a PerkinElmer Envision HTS Multilabel Reader using the AlphaScreen specifications from PerkinElmer. Each plate contains the following controls: • diluted DMSO+KRAS::SOS1 GDP mix+bead mix • diluted DMSO+KRAS::SOS1 GDP mix
IC50 values are calculated and analyzed using a 4 parametric logistic model.

[2] = test system: ERK phosphorylation in DLD-1 cells (KRAS G13D); test: ERK Phosphorylation Assay (AlphaLISA SureFire Ultra p-ERK1/2); format: cell-based; settings: Homo sapiens, 1 h compound, EGF 50 ng/mL 10 min, read-out: pERK
Procedure: ERK Phosphorylation Assay
Low IC50 values are indicative of high potency of the SOS1 inhibitor compounds in this assay setting.
ERK phosphorylation assays are performed using the following human cell lines: DLD-1 (ATCC CCL-221): human colon cancer with a KRAS G13D mutation;
DLD-1 cells (ATCC CCL-221) are seeded at 50,000 cells per well in/60 μL of RPMI with 10% FBS, non-essential amino acids, pyruvate and glutamax in Greiner TC 384 plates. The cells are incubated for 1 h at room temperature and then incubated overnight in an incubator at 37° C. and 5% CO2 in a humidified atmosphere. 60 nL compound solution (10 mM DMSO stock solution) is then added using a Labcyte Echo 550 device. After a 1 h incubation in the aforementioned incubator, 3 μL Epidermal Growth Factor (EGF, final concentration 50 ng/mL) is added. 10 minutes later the medium is removed, and the cells lysed by addition of 20 μL of 1.6-fold lysis buffer from the AlphaLISA SureFire Ultra pERK1/2 (Thr202/Tyr204) Assay Kit with added protease inhibitors, 100 nM trametinib+100 nM staurosporine. After 20 minutes of incubation at room temperature with shaking, 6 μL of each lysate sample is transferred to a 384-well Proxiplate and analyzed for pERK (Thr202/Tyr204) with the AlphaLISA SureFire Ultra pERK1/2 (Thr202/Tyr204) Assay Kit. 3 μL Acceptor Mix and 3 μL Donor Mix are added under subdued light and incubated for 2 h at room temperature in the dark, before the signal is measured on a Perkin Elmer Envision plate reader using 384 AlphaScreen settings for Proxiplates. Data are fitted by iterative calculation with variable hill slope. The sigmoidal curve slope is fitted using a default fitting curve to ascertain IC50 values.

[3] = biological target: CYP3A4 (Homo sapiens (Human), UniProt P08684); test: Time dependent inhibition of CYP3A4 assay (TDI 3A4); format: in vitro ADME; settings: hydroxy-midazolam formation after 30 min relative to 0 min preincubation; 25 uM compound; human liver microsomes; midazolam substrate
Sequence of CYP3A4 (P08684 whole entry): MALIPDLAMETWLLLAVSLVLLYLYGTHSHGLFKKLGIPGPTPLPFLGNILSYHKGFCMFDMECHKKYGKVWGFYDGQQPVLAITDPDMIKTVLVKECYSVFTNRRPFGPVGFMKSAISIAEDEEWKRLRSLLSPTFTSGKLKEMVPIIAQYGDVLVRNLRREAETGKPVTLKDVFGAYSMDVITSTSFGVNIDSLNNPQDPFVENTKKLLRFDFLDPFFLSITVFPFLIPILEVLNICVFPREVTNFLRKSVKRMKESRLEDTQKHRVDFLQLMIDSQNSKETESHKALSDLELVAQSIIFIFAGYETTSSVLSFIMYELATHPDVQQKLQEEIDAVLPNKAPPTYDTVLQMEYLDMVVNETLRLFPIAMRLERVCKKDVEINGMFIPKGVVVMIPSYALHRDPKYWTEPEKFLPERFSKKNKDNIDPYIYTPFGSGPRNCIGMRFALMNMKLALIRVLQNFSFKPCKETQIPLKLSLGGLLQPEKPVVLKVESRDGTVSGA
Procedure: Time Dependent Inhibition of CYP3A4 Assay (TDI 3A4):
After preincubation, the incubate is diluted 1:10 and the substrate midazolam is added for the main incubation (15 min). The main incubation is quenched with acetonitrile and the formation of hydroxy-midazolam is quantified via LC/MS-MS. The formation of hydroxy-midazolam from the 30 min preincubation relative to the formation from the 0 min preincubation is used as a readout. Values of less than 100% mean that the substrate midazolam is metabolized to a lower extend upon 30 min preincubation compared to 0 min preincubation. In general low effects upon 30 min preincubation are desired (corresponding to values close to 100%)

[4] = Metabolic (microsomal) stability assay, mouse liver microsomes (MLM); format: in vitro ADME; settings: 1 μM test compound, 37° C.
Procedure: (§1) Metabolic (Microsomal) Stability Assay: The metabolic degradation of the test compound is assayed at 37° C. with pooled liver microsomes (mouse (MLM), rat (RLM) or human (HLM)). The final incubation volume of 74 μL per time point contains TRIS buffer (pH 7.5; 0.1 M), magnesium chloride (6.5 mM), microsomal protein (0.5 mg/mL for mouse/rat, 1 mg/mL for human specimens) and the test compound at a final concentration of 1 μM. Following a short preincubation period at 37° C., the reactions are initiated by addition of 8 μL beta-nicotinamide adenine dinucleotide phosphate, reduced form (NADPH, 10 mM) and terminated by transfering an aliquot into solvent after different time points. Additionally, the NADPH-independent degradation is monitored in incubations without NADPH, terminated at the last time point by addition of acetonitrile. The quenched incubations are pelleted by centrifugation (1811 g, 5 min). An aliquot of the supernatant is assayed by LC-MS/MS for the amount of parent compound. In vitro intrinsic clearance (CLint, in vitro) is calculated from the time course of the disappearance of the test drug during the microsomal incubation. Each plot is fitted to the first-order elimination rate constant as C(t)=C0*exp(−ke*t), where C(t) and C0 are the concentration of unchanged test drug at incubation time t and that at preincubation and ke is the disappearance rate constant of the unchanged drug. Subsequently, CLint, in vitro (μL min^−1·amount protein) values are converted to CLint, in vitro (mL min^−1·kg^−1) for the whole body. CLint, in vitro data are scaled up using physiological parameters. For better across species comparison the predicted clearance is expressed as percent of the liver blood flow [% QH] in the individual species. In general, high stability (corresponding to low % QH) of the compounds across species is desired.

[5] = Metabolic (microsomal) stability assay, rat liver microsomes (RLM); format: in vitro ADME; settings: 1 μM test compound, 37° C.
Procedure: as §1

[6] = Metabolic (microsomal) stability assay, human liver microsomes (HLM); format: in vitro ADME; settings: 1 μM test compound, 37° C.
Procedure: as §1

[7] = Table 20, KRAS::SOS1 AlphaScreen (SOS1 / KRAS G12D)
[8] = KRAS G12D::SOS1 AlphaScreen, measured without EDTA unless marked with an asterisk

Sequence of protein-protein interaction between SOS1 and KRAS G12D (Q07889 564-1049, stated change not applied): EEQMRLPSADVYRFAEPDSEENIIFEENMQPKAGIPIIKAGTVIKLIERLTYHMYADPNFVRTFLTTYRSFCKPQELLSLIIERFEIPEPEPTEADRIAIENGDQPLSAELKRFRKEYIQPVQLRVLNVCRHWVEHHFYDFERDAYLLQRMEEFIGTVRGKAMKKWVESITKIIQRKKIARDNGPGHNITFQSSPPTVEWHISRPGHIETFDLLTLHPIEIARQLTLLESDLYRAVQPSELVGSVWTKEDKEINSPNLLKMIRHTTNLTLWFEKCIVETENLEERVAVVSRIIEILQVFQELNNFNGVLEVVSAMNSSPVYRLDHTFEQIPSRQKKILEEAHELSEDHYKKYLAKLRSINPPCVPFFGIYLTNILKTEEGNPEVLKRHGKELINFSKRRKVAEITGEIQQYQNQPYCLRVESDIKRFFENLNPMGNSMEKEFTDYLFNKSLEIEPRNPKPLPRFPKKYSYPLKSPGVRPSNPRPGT

Row | SMILES | IC50 [1, 7] | IC50 [2] | TDI 3A4 [%] [3] | MLM [% QH] [4] | RLM [% QH] [5] | HLM [% QH] [6] | IC50 [1, 8]
1 | Cc1nc(N[C@H](C)c2cccc(C(C)(F)F)c2)c2cn(C34CC(F)(C3)C4)c(=O)cc2n1 [I-51] | 31 nM | – | – | <24 % QH | 49 % QH | <24 % QH | –
2 | Cc1nc(N[C@H](C)c2cccc(C(F)F)c2F)c2cn([C@]3(C(F)(F)F)CCOC3)c(=O)c(F)c2n1 [I-85] | 9 nM | – | – | 55 % QH | <23 % QH | 24 % QH | –
3 | Cc1nc(N[C@H](C)c2cccc(C(F)(F)F)c2C)c2cn(C3(c4ccccc4)CCOCC3)c(=O)cc2n1 [I-127] | – | – | 97% | – | – | – | 23 nM
4 | Cc1nc(N[C@H](C)c2cccc(C(F)F)c2F)c2cn([C@H]3C[C@@H]3C(F)F)c(=O)c(F)c2n1 [I-83] | 15 nM | – | – | <24 % QH | 42 % QH | <24 % QH | –
5 | Cc1nc(N[C@H](C)c2cccc(C(F)F)c2F)c2cn([C@H](C)C(F)(F)F)c(=O)cc2n1 [I-10] | 11 nM | – | – | 41 % QH | 40 % QH | <24 % QH | –
6 | Cc1c(=O)n(C2(C)CC2)cc2c(N[C@H](C)c3cccc(C(F)F)c3F)ncnc12 [I-161] | – | – | – | 44 % QH | <23 % QH | 31 % QH | 12 nM
7 | Cc1nc(N[C@H](C)c2cccc(C(F)(F)F)c2)c2cn(C3(C(F)F)CC3)c(=O)cc2n1 [I-97] | 14 nM | 81 nM | – | <24 % QH | <23 % QH | <24 % QH | –

Further molecules by falling IC50 [1, 7], results first:

Row | IC50 [1, 7] | IC50 [2] | TDI 3A4 [%] [3] | MLM [% QH] [4] | RLM [% QH] [5] | HLM [% QH] [6] | IC50 [1, 8] | SMILES
8 | 8 nM | – | – | <24 % QH | 29 % QH | <24 % QH | – | Cc1nc(N[C@H](C)c2cccc(C(F)F)c2F)c2cn([C@H]3C[C@H](F)C3)c(=O)c(F)c2n1 [I-84]
9 | 6 nM | – | 87% | – | – | – | – | Cc1nc(N[C@H](C)c2cccc(C(F)F)c2C)c2cn(C3CCC3)c(=O)cc2n1 [I-22]
10 | 2 nM | 63 nM | 87% | – | – | – | – | Cc1nc(N[C@H](C)c2cccc3c2CCC3(F)F)c2cn(C3(C)CC3)c(=O)cc2n1 [I-57]
11 | 2 nM | – | 83% | – | – | – | – | Cc1nc(N[C@H](C)c2cccc(C(F)(F)C(C)(C)O)c2F)c2cn(C3(C(F)F)CC3)c(=O)c(F)c2n1 [I-89]
12 | 2 nM | – | – | <24 % QH | <23 % QH | 24 % QH | – | Cc1nc(N[C@H](C)c2cccc(C(F)(F)C(C)(C)O)c2F)c2cn(C3(C)CC3)c(=O)c(F)c2n1 [I-88]
